The values below are quoted from earlier work in US20050203014A1, “Composition and methods for modulating CNS activity” (Curis, Inc., priority 2003, published 2005).

Data set [1] deals with knock-out mice lacking 5-HT1A receptors. To be noted: 5-HT1A receptor knock-out mice.
For data set [2], the system named is dentate gyrus of the rat hippocampus.

On to `CNCCC(Oc1ccc(C(F)(F)F)cc1)c1ccccc1` (centres unmarked) [fluoxetine], for which, in data set [1], the response to antidepressant entry is on record as “non-responsive”. Moreover, in data set [2], the “neurogenesis in the dentate gyrus” value is reported as “increase neurogenesis”.
Take `CNCCCN1c2ccccc2CCc2ccccc21` [desipramine]: the response to antidepressant entry in data set [1] was “respond”.
For `CN(C)CCCN1c2ccccc2CCc2ccccc21` [imipramine], in data set [1], the response to antidepressant entry is on record as “respond”. Further, the “neurogenesis in the dentate gyrus” value in data set [2] is “increase neurogenesis”.
